Experimental data published in patent publication US20240360194A1, “New Peptides as Potent and Selective GIP Receptor Agonists” (Sanofi, priority 2021, published 2024).
≈ marks a conversion by molar mass, not a printed value. Read-outs that look alike come from different tables or passages of the source. Numbered stars: 1 amine (or outer) side, 2 acyl side, 3 side chain; on linkers, the order of the positions; unused ones are H or OH. Square brackets hold non-standard residues; d marks the D form. Side chains are listed from the residue outwards. Ends that are not written are not given here. * marks the point of attachment. C18 diacid = O=C(O)CCCCCCCCCCCCCCCCC(=O)*; γGlu = O=C(O)[C@H](CCC(=O)[*:2])N[*:1]; AEEA = NCCOCCOCC(=O)O; Aib = CC(C)(N)C(=O)O

Key:
[1] = target: T1, human GIP receptor (Homo sapiens, UniProt P48546); assay: In vitro cellular cAMP assay for GIP receptor efficacy (human adipocytes); format: cell-based
T1 construct: human adipocytes endogenously expressing the human GIP receptor; host or cells: human preadipocytes (Lonza) differentiated to adipocytes
T1 sequence (P48546 22-466): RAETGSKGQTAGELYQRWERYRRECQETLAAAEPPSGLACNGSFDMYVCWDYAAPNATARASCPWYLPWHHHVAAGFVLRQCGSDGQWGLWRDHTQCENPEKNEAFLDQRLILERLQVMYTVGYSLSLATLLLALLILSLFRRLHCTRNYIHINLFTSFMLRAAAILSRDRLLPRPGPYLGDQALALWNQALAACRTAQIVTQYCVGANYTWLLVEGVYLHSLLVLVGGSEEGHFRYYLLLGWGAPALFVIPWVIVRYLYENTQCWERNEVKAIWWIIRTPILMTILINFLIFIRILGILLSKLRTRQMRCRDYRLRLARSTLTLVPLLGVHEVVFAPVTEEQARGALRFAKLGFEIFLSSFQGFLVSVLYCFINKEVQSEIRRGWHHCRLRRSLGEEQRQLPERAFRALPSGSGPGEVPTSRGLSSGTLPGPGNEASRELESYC
In short: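 Human preadipocytes expanded, then differentiated 6 days (insulin, dexamethasone, PPARγ agonist, 200 μM IBMX, L-thyroxine) before plating at 5000 cells/well. Test compound applied 30 min at room temperature; cAMP measured by HTRF after 1 h with lysis-buffer reagents, read as 665/620 nm fluorescence ratio.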

[2] = target: T2, human GIP receptor (hGIPR) (Homo sapiens, UniProt P48546); assay: Binding assay, displacement of [125I]GIP from HEK-293 membranes over-expressing GIPR (SPA); conditions: [125I]GIP displacement
T2 sequence (P48546 22-466): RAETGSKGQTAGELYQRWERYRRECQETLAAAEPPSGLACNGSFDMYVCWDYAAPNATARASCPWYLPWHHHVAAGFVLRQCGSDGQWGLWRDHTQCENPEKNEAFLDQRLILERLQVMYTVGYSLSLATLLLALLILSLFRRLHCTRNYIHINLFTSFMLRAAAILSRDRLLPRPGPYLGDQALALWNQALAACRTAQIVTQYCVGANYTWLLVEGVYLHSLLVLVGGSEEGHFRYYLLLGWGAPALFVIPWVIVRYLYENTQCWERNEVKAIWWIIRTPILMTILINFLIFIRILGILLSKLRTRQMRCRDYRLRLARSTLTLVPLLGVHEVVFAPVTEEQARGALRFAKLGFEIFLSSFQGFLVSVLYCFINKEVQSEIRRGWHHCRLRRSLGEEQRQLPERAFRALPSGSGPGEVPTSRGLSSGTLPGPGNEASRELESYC
In short: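 Membranes from HEK-293 cells over-expressing human GIPR or GLP-1R, isolated by homogenising, sonicating and ultracentrifuging at 100000×g into HEPES/EDTA/NaCl buffer with protease inhibitors, were used for binding.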

[3] = target: T3, human GLP-1 receptor (hGLP-1R) (Homo sapiens, UniProt P43220); assay: In vitro cellular cAMP assay for GLP-1 receptor efficacy (HEK-293 cell line over-expressing receptor); format: cell-based; conditions: HEK-293, 0.1% BSA
T3 sequence (P43220 24-463): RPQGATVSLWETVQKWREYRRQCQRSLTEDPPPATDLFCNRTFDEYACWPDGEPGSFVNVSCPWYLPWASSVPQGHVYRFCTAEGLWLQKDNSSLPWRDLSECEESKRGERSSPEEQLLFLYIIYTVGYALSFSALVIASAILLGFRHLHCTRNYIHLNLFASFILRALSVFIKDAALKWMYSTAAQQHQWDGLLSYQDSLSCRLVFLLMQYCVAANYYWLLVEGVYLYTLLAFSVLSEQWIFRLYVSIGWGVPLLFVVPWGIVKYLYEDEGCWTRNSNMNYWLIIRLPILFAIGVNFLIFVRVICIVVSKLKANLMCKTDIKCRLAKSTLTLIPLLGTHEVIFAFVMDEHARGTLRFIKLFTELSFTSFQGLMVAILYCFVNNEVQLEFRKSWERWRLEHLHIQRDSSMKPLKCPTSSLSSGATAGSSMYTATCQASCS

[4] = target: T2, human GIP receptor (hGIPR); assay: In vitro cellular cAMP assay for GIP receptor efficacy (HEK-293 cell line over-expressing receptor); format: cell-based; conditions: EC50 hGIPR 0.1% BSA, HEK-293, 0.1% BSA
[5] = Solubility assessment (UHPLC-UV of supernatant, target 10 mg/ml); format: physicochemical; conditions: read-out: Soluble amount
In short: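 Peptides at 10 mg/ml (purity-corrected) in 100 mM phosphate pH 7.4, optionally with 2.7 mg/ml m-cresol; gentle agitation 1 h, then 5° C. overnight (24 h). Supernatant after 15 min centrifugation at 2500 RCF quantified by UHPLC-UV, with sequence-based extinction coefficients.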

[6] = target: T3, human GLP-1 receptor (hGLP-1R); assay: Binding assay, displacement of [125I]GLP-1 from HEK-293 membranes over-expressing GLP-1R (SPA); conditions: [125I]GLP-1 displacement
Experimental: (1) Preparation of Membranes from HEK-293 Cells Over-Expressing GIPR or GLP-1R
HEK-293 cells recombinantly over-expressing GIPR or GLP-1R were grown to 50% confluency, washed with warm 1×PBS (Gibco) and detached in HEPES/EDTA-buffer (100 mM HEPES pH 7.5, 5 mM EDTA). Cells were harvested by centrifugation at 4° C. and 3000×g and the pellets were stored at −80° C. until further processing.
After thawing on ice, pellets were resuspended in HEPES/EDTA-buffer and homogenized on ice for 1 min using Ultra-Turray T25. After subsequent sonification the cell debris was removed by centrifugation at 1000×g and 4° C. Supernatants were then ultra-centrifuged at 100000×g and 4° C. under vacuum for 30 min. Pellets were resuspended in HEPES/EDTA/NaCl-buffer (20 mM HEPES, 1 mM EDTA, 150 mM NaCl; add 1 Complete Mini Protease inhibitor cocktail to 10 ml buffer) and protein content was determined via BCA-Protein assay.
(2) Measurement of Binding Activity of Test Compounds to Human GIPR or GLP-1R

[7] = target: T4, human GIP receptor (human, UniProt P48546 22-466); assay: cell-based or functional assay
T4 sequence (looked up): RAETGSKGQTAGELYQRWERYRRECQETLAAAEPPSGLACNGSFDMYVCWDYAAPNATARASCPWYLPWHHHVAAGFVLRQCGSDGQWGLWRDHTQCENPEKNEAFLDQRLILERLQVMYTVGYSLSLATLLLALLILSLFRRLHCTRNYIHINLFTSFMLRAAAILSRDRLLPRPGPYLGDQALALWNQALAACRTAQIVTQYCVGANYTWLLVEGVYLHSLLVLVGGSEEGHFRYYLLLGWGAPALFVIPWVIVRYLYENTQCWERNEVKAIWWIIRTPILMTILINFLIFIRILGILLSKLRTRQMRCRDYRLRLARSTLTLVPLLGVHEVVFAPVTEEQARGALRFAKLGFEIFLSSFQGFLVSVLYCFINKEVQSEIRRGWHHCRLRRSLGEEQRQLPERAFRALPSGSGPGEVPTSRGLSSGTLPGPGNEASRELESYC

[8] = target: T5, human GLP-1 receptor (human, UniProt P43220 24-463); assay: cell-based or functional assay
[9] = target: T5, human GLP-1 receptor; assay: displacement of [125I]GLP-1 from HEK-293 membranes expressing hGLP-1R (SPA beads)
[10] = target: T4, human GIP receptor; assay: cell-based or functional assay; remark: listed apart in the source

With `CC[C@H](C)[C@H](NC(=O)[C@H](CCCNC(=N)N)NC(=O)[C@H](CC(=O)O)NC(=O)[C@H](CCCCNC(=O)CN(C)C(=O)CN(C)C(=O)CN(C)C(=O)CC[C@H](NC(=O)CCCCCCCCCCCCCCCCC(=O)O)C(=O)O)NC(=O)C(C)(C)NC(=O)[C@@H](NC(=O)[C@H](CO)NC(=O)[C@H](CC(C)C)NC(=O)[C@H](CC(=O)O)NC(=O)[C@H](CO)NC(=O)[C@@H](NC(=O)[C@H](Cc1ccccc1)NC(=O)[C@@H](NC(=O)CNC(=O)[C@H](CCC(=O)O)NC(=O)C(C)(C)NC(=O)[C@@H](N)Cc1ccc(O)cc1)[C@@H](C)O)[C@@H](C)CC)[C@@H](C)CC)C(=O)N[C@@H](Cc1c[nH]cn1)C(=O)N[C@@H](CCC(N)=O)C(=O)NC(C)(C)C(=O)N[C@@H](CCC(=O)O)C(=O)N[C@@H](Cc1ccccc1)C(=O)N[C@H](C(=O)N[C@@H](CCC(=O)O)C(=O)N[C@@H](Cc1c[nH]c2ccccc12)C(=O)N[C@@H](CC(C)C)C(=O)N[C@@H](CC(C)C)C(=O)N[C@@H](C)C(=O)N[C@@H](CCC(N)=O)C(=O)N[C@@H](CCCNC(=N)N)C(=O)NCC(N)=O)[C@@H](C)CC` [SEQ ID NO: 8, H2N-Y-Aib-E-G-T-F-I-S-D-L-S-I-Aib-K[{N-MeGly}3-gGlu-C18OH]-D-R-I-H-Q-Aib-E-F-I-E-W-L-L-A-Q-R-G-NH2] the EC50 ([1]; read-out: hGIPR EC50) was 0.7 nM, the Emax ([1]; read-out: hGIPR Emax) was 128% and the IC50 [2] was 0.1 nM. For the same molecule, the EC50 [3] was > 10 nM, the EC50 [4] was 0.00745 nM and the solubility at 24 h ([5]; 100 mM phosphate buffer pH 7.4 (solubility buffer system A), pH 7.4, Solubility buffer system A: 100 mM phosphate buffer pH 7.4) was > 10700 µg/mL. The solubility at 24 h ([5]; pH 7.4, Solubility buffer system C: 100 mM phosphate buffer pH 7.4, 2.7 mg/ml m-cresol) was 1800 µg/mL (≈ 423 µM) and the IC50 [6] was 139 nM.

B1: SEQ ID NO: 27 (peptide)
peptide: Y[Aib]EGTFISDLSI[Aib]K([AEEA-AEEA-γGlu-C18 diacid])DRIHQEEFIEWLLAQEPSSGAPPPS-NH2
modifications: N-terminus assumed
SMILES: CC[C@H](C)[C@H](NC(=O)[C@H](Cc1ccccc1)NC(=O)[C@H](CCC(=O)O)NC(=O)[C@H](CCC(=O)O)NC(=O)[C@H](CCC(N)=O)NC(=O)[C@H](Cc1c[nH]cn1)NC(=O)[C@@H](NC(=O)[C@H](CCCNC(=N)N)NC(=O)[C@H](CC(=O)O)NC(=O)[C@H](CCCCNC(=O)COCCOCCNC(=O)COCCOCCNC(=O)CC[C@H](NC(=O)CCCCCCCCCCCCCCCCC(=O)O)C(=O)O)NC(=O)C(C)(C)NC(=O)[C@@H](NC(=O)[C@H](CO)NC(=O)[C@H](CC(C)C)NC(=O)[C@H](CC(=O)O)NC(=O)[C@H](CO)NC(=O)[C@@H](NC(=O)[C@H](Cc1ccccc1)NC(=O)[C@@H](NC(=O)CNC(=O)[C@H](CCC(=O)O)NC(=O)C(C)(C)NC(=O)[C@@H](N)Cc1ccc(O)cc1)[C@@H](C)O)[C@@H](C)CC)[C@@H](C)CC)[C@@H](C)CC)C(=O)N[C@@H](CCC(=O)O)C(=O)N[C@@H](Cc1c[nH]c2ccccc12)C(=O)N[C@@H](CC(C)C)C(=O)N[C@@H](CC(C)C)C(=O)N[C@@H](C)C(=O)N[C@@H](CCC(N)=O)C(=O)N[C@@H](CCC(=O)O)C(=O)N1CCC[C@H]1C(=O)N[C@@H](CO)C(=O)N[C@@H](CO)C(=O)NCC(=O)N[C@@H](C)C(=O)N1CCC[C@H]1C(=O)N1CCC[C@H]1C(=O)N1CCC[C@H]1C(=O)N[C@@H](CO)C(N)=O
notes: Synthetic peptide, 39 residues (Glu at 30)
In the case of B1, the “EC50 hGIPR 0% HSA (cAMP, HEK-293)” value [7] is reported as 0.00029 nM, the “EC50 hGIPR 0.1% BSA (cAMP, HEK-293)” value [7] is reported as 0.032 nM and the “EC50 hGLP-1R 0.1% BSA (cAMP, HEK-293)” value [8] is reported as > 10 nM. The IC50 [9] was 465 nM, the “hGIPR EC50 (cAMP, human adipocytes)” value [10] was 0.6 nM and the “hGIPR Emax (cAMP, human adipocytes)” value [10] was 116%.
